Source: patent publication US12390474B2, “Immediate release multilayer tablet” (priority 2020, dated 2025)

Key:
[1] = Chemical compatibility of olanzapine and samidorphan L-malate, stability at 40° C./75% RH by HPLC; format: physicochemical; conditions: for Percentage Related Compound B Impurity: 40° C./75% RH, ND: ≤LOD (0.02 wt %), LOQ: 0.05 wt %; for Percentage Total Impurities: 40° C./75 RH
Description: Samples in 20 ml Wheaton scintillation vials were stored at 40° C./75% RH in open and closed vial configurations. Closed vials were vials closed with a urea cap and wrapped using parafilm under ambient conditions. The contents of the vials were tested at the start of the study and after 2, 6 and 12 weeks. At each time point samples were analysed by reversed phase HPLC (Waters ACQUITY UPLC H-Class System) with ACQUITY PDA Detector using a Waters ACQUITY UPLC CSH C18 Column, 3 mm×100 mm, and a gradient elution of acetate buffer pH 5.1 and 50/50 (v/v) acetonitrile/methanol.

[2] = cited from earlier work
[3] = Particle size distribution of samidorphan L-malate; format: physicochemical
From the text: The particle size distribution of the samidorphan or samidorphan pharmaceutically acceptable salt (e.g., L-malate) present in a disclosed tablet (e.g., as part of a first tablet layer) may be for example, a (D10) of between about 10 μm to about 80 μm, a (D50) of between about 40 μm to about 200 μm and a (D90) of between about 100 μm to about 300 μm, more preferably a D10 of between about 25 μm and about 50 μm; the D50 of between about 60 μm and about 100 μm. In some embodiments, D90 of the samidorphan (e.g., L-malate salt) is between about 120 μm and about 175 μm. […] Particle size (diameter) may be determined by conventional techniques such as dynamic light scattering. The ‘Dx’ nomenclature means that ‘x’ percent of the particles have a number average diameter (‘D’) less than or equal to the reported value when measured by static or dynamic light scattering techniques known to those skilled in the art. (e.g. D10=175 μm, means that 10% of particles have a number average diameter of less than or equal to 175 μm), a D50 (or Dv50) of less than 300 μm, means that 50% of the particle population has a diameter of less than or equal to 300 μm. The term “Dx” as used herein refers to a volume based size and is equivalent to the term “DvX” commonly used to characterize particle sizes. Since the particles of the present invention may be irregular in shape, an approximation of the particle size is made on the basis of the volume-based particle size, which specifies the diameter of the sphere that has same volume as a given particle. Unless otherwise specified, all particle sizes are specified in terms of volume-based measurements and are measured by laser light scattering/diffraction. Particle sizes are then determined based on Mie scattering theory.
For samidorphan L-malate, a recrystallization process was implemented providing particle size control during manufacturing to intentionally target a particle size distribution similar to the size of the drug product filler excipients. Unmilled and recrystallized grades of samidorphan L-malate were characterized for particle size distribution using 3 unique lots of each. The recrystallization was targeted to produce material with less fine particles thus increasing the D10. A slight increase in the D50 and decrease in the D90 adjusted the centerpoint of the distribution and decreased the overall span of the distribution. Overall the recrystallized materials had tighter distributions and reduced lot to lot variability, indicating better control. No change in the solid state form was observed between unmilled and recrystallized samidorphan L-malate as assessed by PXRD spectral comparison.

## Cc1cc2c(s1)Nc1ccccc1N=C2N1CCN(C)CC1 [Olanzapine, 2-methyl-4-(4-methyl-1-piperazinyl)-10H-thieno[2,3-b][1,5]benzodiazepine]
[1]; INITIAL
  Percentage Related Compound B Impurity: 0.01 wt %
  Percentage Total Impurities: 0.00%
[1]; OPEN vial, 2 WEEK
  Percentage Related Compound B Impurity: <LOQ
  Percentage Total Impurities: 0.00%
[1]; CLOSED vial, 2 WEEK
  Percentage Total Impurities: 0.00%
[1]; CLOSED vial, 6 WEEK
  Percentage Total Impurities: 0.00%
[1]; CLOSED vial, 12 WEEK
  Percentage Total Impurities: 0.00%
[1]; OPEN vial, 6 WEEK
  Percentage Total Impurities: 0.00%
[1]; OPEN vial, 12 WEEK
  Percentage Total Impurities: 0.00%

## NC(=O)c1ccc2c(c1O)[C@]13CCN(CC4CC4)[C@H](C2)[C@]1(O)CCC(=O)C3.O=C(O)C[C@H](O)C(=O)O [Samidorphan L-malate, morphinan-3-carboxamide, 17-(cyclopropylmethyl)-4, 14-dihydroxy6-oxo-, (2S)-2-hydroxybutanedioate]
[1]; CLOSED vial, 2 WEEK
  Percentage Total Impurities: 0.00%
[1]; CLOSED vial, 6 WEEK
  Percentage Total Impurities: 0.00%
[1]; CLOSED vial, 12 WEEK
  Percentage Total Impurities: 0.00%
[1]; INITIAL
  Percentage Total Impurities: 0.00%
[1]; OPEN vial, 2 WEEK
  Percentage Total Impurities: 0.00%
[1]; OPEN vial, 6 WEEK
  Percentage Total Impurities: 0.00%
[1]; OPEN vial, 12 WEEK
  Percentage Total Impurities: 0.00%
[2]
  pKa (amine): 8.3
  pKa (phenol): 10.1

## NC(=O)c1ccc2c(c1O)[C@]13CCN(CC4CC4)[C@H](C2)[C@]1(O)CCC(=O)C3.O=C(O)C[C@H](O)C(=O)O [Sample number 1]
[3]; listed as 1
  Particle size D10: 8 μm
  Particle size D50: 37 μm
  Particle size D90: 223 μm

## NC(=O)c1ccc2c(c1O)[C@]13CCN(CC4CC4)[C@H](C2)[C@]1(O)CCC(=O)C3.O=C(O)C[C@H](O)C(=O)O [Sample number 2]
[3]; listed as 2
  Particle size D10: 10 μm
  Particle size D50: 36 μm
  Particle size D90: 231 μm

## NC(=O)c1ccc2c(c1O)[C@]13CCN(CC4CC4)[C@H](C2)[C@]1(O)CCC(=O)C3.O=C(O)C[C@H](O)C(=O)O [Sample number 3]
[3]; listed as 3
  Particle size D10: 6 μm
  Particle size D50: 28 μm
  Particle size D90: 243 μm

## NC(=O)c1ccc2c(c1O)[C@]13CCN(CC4CC4)[C@H](C2)[C@]1(O)CCC(=O)C3.O=C(O)C[C@H](O)C(=O)O [Sample number 4]
[3]; listed as 4
  Particle size D10: 33 μm
  Particle size D50: 73 μm
  Particle size D90: 130 μm

## NC(=O)c1ccc2c(c1O)[C@]13CCN(CC4CC4)[C@H](C2)[C@]1(O)CCC(=O)C3.O=C(O)C[C@H](O)C(=O)O [Sample number 5]
[3]; listed as 5
  Particle size D10: 46 μm
  Particle size D50: 90 μm
  Particle size D90: 160 μm

## NC(=O)c1ccc2c(c1O)[C@]13CCN(CC4CC4)[C@H](C2)[C@]1(O)CCC(=O)C3.O=C(O)C[C@H](O)C(=O)O [Sample number 6]
[3]; listed as 6
  Particle size D10: 42 μm
  Particle size D50: 90 μm
  Particle size D90: 165 μm
